The source of these data is patent publication EP1351977B1, “ANTIMICROBIAL PSEUDOPEPTIDES” (INSTITUT NATIONAL DE LA RECHERCHE AGRONOMIQUE (INRA), priority 2001, dated 2004).

Ends that are not written are not given here.

Assay type in all cases: cell-based
Assay [1] deals with Botrytis cinerea myc. Briefly: Antifungal growth inhibition test in liquid medium.
Assay [2] relates to Cladosporium myc. Briefly: Antifungal growth inhibition test in liquid medium.
Assay [3] relates to Helminthosporium teres sp. In words: Antifungal growth inhibition test in liquid medium.
Assay [4] concerns Rhizoctonia solani myc. In words: Antifungal growth inhibition test in liquid medium.
For assay [5], the system named is Fusarium culmorum sp. Briefly: Antifungal growth inhibition test in liquid medium. The source says: (§1) Les composés des pics 5, 7 et 8 de la figure 1 ont été testées vis-à-vis d'un ensemble de champignons phytopathogènes. Trois doses (10, 20, et 40 ppm) ont été employées pour chacun des composés.
(§2) L'activité antifongique a été détectée par un test d'inhibition de croissance en milieu liquide. Les spores des champignons à tester ont été mises en suspension dans un milieu de culture de type "Pomme de terre-Glucose". De préférence, on utilise 12 g de milieu Potato Dextrose Broth (Difco) pour 1 litre d'eau déminéralisée. Deux antibiotiques ont été rajoutés au milieu de culture: la tétracycline (concentration finale de 10 µg/ml) et la céfotaxime (100 µg/ml). On dépose 10 µl de chaque composé à tester dans des plaques de microtitration en présence de 90 µl de milieu de culture contenant les spores (à une concentration finale de 10^4 spores/ml). L'incubation a été réalisée en chambre humide à 30°C durant 48 heures. La croissance fongique a été observée au microscope photonique après 24 h et quantifiée après 48 heures par mesure de l'absorbance à 600 nm à l'aide d'un spectrophotomètre lecteur de plaque de microtitration. L'activité des composés contre les champignons phytopathogènes est exprimée par un pourcentage d'inhibition de croissance correspondant à 100 x (1 - absorbance avec produit/ absorbance du témoin sans produit), l'absorbance étant mesurée à 600 nm, 5 jours après le début de l'expérience.

Assay [6] concerns Phytophthora myc. In words: Antifungal growth inhibition test in liquid medium.
Source text: as §1, §2

The test system of assay [7] is Klebsiella pneumoniae. In words: Bacterial growth inhibition test in Petri dish (solid medium), MIC. To be noted: MIC extrapolated from inhibition diameter vs log10 concentration.
Assay [8] has as its system Serratia entomophila. Described as above. To be noted: MIC extrapolated from inhibition diameter vs log10 concentration.
In assay [9] the test system is Staphylococcus aureus. The assay is described as above. To be noted: MIC extrapolated from inhibition diameter vs log10 concentration.
Assay [10] concerns Bacillus megaterium. The assay is described as above. To be noted: MIC extrapolated from inhibition diameter vs log10 concentration.

As for “Composé 8: pseudopeptide du pic n° 8 de Xenorhabdus nematophilus F1; Famille 1: Lys Lys Lys Lys Lys Gly; 1066 Da; structure en Figure 2 (KKKKKG; also: pseudopeptide modifications)”, the “pourcentage d'inhibition de croissance” value worked out at 40% in assay [1] (10 ppm); 70% in assay [1] (20 ppm); 93% in assay [1] (40 ppm); 70% in assay [2] (10 ppm); 92% in assay [2] (20 ppm); 91% in [2] (40 ppm). Also, the “pourcentage d'inhibition de croissance” value was 76% in assay [3] (10 ppm); 94% in assay [3] (20 ppm); 92% in [3] (40 ppm); 56% in assay [4] (10 ppm); 91% in assay [4] (20 ppm); 93% in assay [4] (40 ppm). Besides, the “pourcentage d'inhibition de croissance” value in assay [5] (10 ppm) turned out to be 96%; in assay [5] (20 ppm) it was 96%; in [5] (40 ppm) it was 96%; in assay [6] (10 ppm) it was 76%; in assay [6] (20 ppm) it was 78%; in [6] (40 ppm), 77%. Also, the CMI is 15 µg/mL in assay [7], 30 µg/mL in assay [8], 15 µg/mL in assay [9] and 1,5 µg/ml in assay [10].
